Data published in publication PMC12439166, “Dietary flavonoids form supramolecular assemblies, alter biochemistry, and enhance cell resilience” (Frontiers in Nutrition, 2025).

What was measured:
Arginase 1 (ARG1) = target: T1, Arginase 1 (ARG1) (Homo sapiens, UniProt P05089); test: Enzyme activity assay (SAMDI-MS), Arginase 1; assay type: biochemical; conditions: 10 concentrations, 5 nM to 100 μM, compounds incubated with enzyme 30 min, result in words
T1 sequence (P05089 1-322): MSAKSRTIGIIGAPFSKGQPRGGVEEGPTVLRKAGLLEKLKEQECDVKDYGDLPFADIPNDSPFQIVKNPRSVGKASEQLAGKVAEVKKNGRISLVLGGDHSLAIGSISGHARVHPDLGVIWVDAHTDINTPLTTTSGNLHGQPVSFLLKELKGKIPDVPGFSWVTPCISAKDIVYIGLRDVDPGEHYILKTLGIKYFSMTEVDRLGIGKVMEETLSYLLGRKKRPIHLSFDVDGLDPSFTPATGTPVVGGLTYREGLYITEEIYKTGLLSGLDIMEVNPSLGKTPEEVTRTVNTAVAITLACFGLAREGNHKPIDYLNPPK
Method: (§1) Enzyme screens were performed by SAMDI Tech (contract research organization); enzyme assays were performed in a 20 μL volume in 384-well low-volume polypropylene microtiter plates (Greiner Bio-One) at room temperature. The enzymes [Arginase 1 (ARG1), Lysine demethylase 4C (KDM4C), MAP/microtubule affinity-regulating kinase 4 (MARK4), Histone-Lysine N-methyltransferase (NSD2), Tyrosine-protein phosphatase non-receptor type 1 (PTP1B), and Sirtuin-3 (SIRT3)] were incubated with compounds for 30 min prior to initiation of the reaction by the addition of substrate and cofactors (if required). […] SAMDI MS was performed using reflector positive mode on an AB Sciex TOF-TOF 5800 System (AB Sciex, Framingham, MA) with 400 shots/spot analyzed in a random raster sampling. For data analysis, the area under the curves (AUCs) for the product peak and substrate peak were calculated using the TOF/TOF Series Explorer (AB Sciex), and the amount of product formed was calculated using the equation AUC product / (AUC product + AUC Substrate). […]
(§2) IC50 values of enzyme inhibition. Inhibition of the enzymes was measured at 10 concentration values in the range of 5 nM to 100 μM for each compound and enzyme, with two technical replicates; the percent inhibition values were determined by SAMDI software. […]

Sirtuin-3 (SIRT3) = target: T2, Sirtuin-3 (SIRT3) (Homo sapiens, UniProt Q9NTG7); test: Enzyme activity assay (SAMDI-MS), SIRT3; assay type: biochemical; conditions: 10 concentrations, 5 nM to 100 μM, compounds incubated with enzyme 30 min, result in words
T2 sequence (Q9NTG7 1-399): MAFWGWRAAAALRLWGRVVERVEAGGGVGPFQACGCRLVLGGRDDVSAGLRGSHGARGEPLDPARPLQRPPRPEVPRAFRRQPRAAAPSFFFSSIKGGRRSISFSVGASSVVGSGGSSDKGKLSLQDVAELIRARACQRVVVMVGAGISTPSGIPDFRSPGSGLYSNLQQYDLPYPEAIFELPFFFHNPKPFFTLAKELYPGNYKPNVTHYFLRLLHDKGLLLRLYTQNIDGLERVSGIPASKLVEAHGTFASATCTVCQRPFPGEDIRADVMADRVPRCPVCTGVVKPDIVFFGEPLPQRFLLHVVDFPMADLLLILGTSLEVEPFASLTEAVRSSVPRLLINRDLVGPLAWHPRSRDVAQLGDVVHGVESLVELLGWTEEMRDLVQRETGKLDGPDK
Method: as §1, §2

O=c1c(O)c(-c2ccc(O)c(O)c2)oc2cc(O)cc(O)c12 [quercetin]
inhibition of enzyme activity, ARG1 (Arginase 1 (ARG1); listed as Quercetin): inhibited | inhibition of enzyme activity, ARG1 (Arginase 1 (ARG1); listed as Quercitin): concentration-dependent inhibition | inhibition of enzyme activity, SIRT3 (Sirtuin-3 (SIRT3); listed as Quercetin): inhibited | inhibition of enzyme activity, SIRT3 (Sirtuin-3 (SIRT3); listed as Quercitin): concentration-dependent inhibition
